Tests used:
[1] = compound: C1CC(C1)(C(=O)[O-])C(=O)[O-].N.N.[Pt+2] [Carboplatin]; conditions: max 10 µM
Method in brief: (§1)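 Cancer cell lines were plated in 1536-well plates in 7.5 μl of DMEM/F12 or RPMI with 10% FBS and kept 24 hours at 37°C and 5% CO2 before 72 hours of dosing, with final DMSO typically 0.2%. CellTiter-Glo 2.0 luminescence measured viability, scaled between blank-well and DMSO-well means. Dose responses were fitted to a two-parameter logistic curve with a non-linear mixed effects model. This fit gives the single-agent IC50.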

[2] = compound: C1CN(CCC1(C(=O)N[C@@H](CCO)C2=CC=C(C=C2)Cl)N)C3=NC=NC4=C3C=CN4 [AZD5363]; conditions: max 10 µM
Method in brief: as §1

[3] = compound: C=CCn1c(=O)c2cnc(Nc3ccc(N4CCN(C)CC4)cc3)nc2n1-c1cccc(C(C)(C)O)n1 [AZD1775]; conditions: max 3 µM
Method in brief: as §1

[4] = compound: CC(=O)Nc1cccc(-n2c(=O)n(C3CC3)c(=O)c3c(Nc4ccc(I)cc4F)n(C)c(=O)c(C)c32)c1 [Trametinib]; conditions: max 1 µM
Method in brief: as §1

[5] = compound: CC(=O)O[C@H]1C(=O)[C@@]2(C)[C@H]([C@H](OC(=O)c3ccccc3)[C@]3(O)C[C@H](OC(=O)[C@H](O)[C@@H](NC(=O)c4ccccc4)c4ccccc4)C(C)=C1C3(C)C)[C@]1(OC(C)=O)CO[C@@H]1C[C@@H]2O [Paclitaxel]; conditions: max 3 µM
Method in brief: as §1

[6] = compound: CC(=O)c1c(C)c2cnc(Nc3ccc(N4CCNCC4)cn3)nc2n(C2CCCC2)c1=O [Palbociclib]; conditions: max 10 µM
Method in brief: as §1

[7] = compound: CC(C)n1c(=O)n(C)c2cnc3cc(F)c(-c4ccc(OCCCN5CCCCC5)nc4)cc3c21 [AZD1390]; conditions: max 0.3 µM
Method in brief: as §1

[8] = compound: CC1(C)CCC(CN2CCN(c3ccc(C(=O)NS(=O)(=O)c4ccc(NCC5CCOCC5)c([N+](=O)[O-])c4)c(Oc4cnc5[nH]ccc5c4)c3)CC2)=C(c2ccc(Cl)cc2)C1 [Venetoclax]; conditions: max 1 µM
Method in brief: as §1

[9] = compound: CC1=C(C(=CC=C1)Cl)NC(=O)C2=CN=C(S2)NC3=CC(=NC(=N3)C)N4CCN(CC4)CCO [Dasatinib]; conditions: max 2 µM
Method in brief: as §1

[10] = compound: CC1=CN2[C@@H](C1)C=NC3=CC(=C(C=C3C2=O)OC)OCCCCCOC4=C(C=C5C(=C4)N=C[C@@H]6CC(=CN6C5=O)C)OC [SG3199]; conditions: max 0.001 µM
Method in brief: as §1

[11] = compound: CCN(CCO)CCCOc1ccc2c(Nc3cc(CC(=O)Nc4cccc(F)c4)[nH]n3)ncnc2c1 [AZD2811]; conditions: max 1 µM
Method in brief: as §1

[12] = compound: CCc1c2c(nc3ccc(O)cc13)-c1cc3c(c(=O)n1C2)COC(=O)[C@]3(O)CC [SN-38]; conditions: max 0.3 µM
Method in brief: as §1

[13] = compound: CN(C)CCCOc1ccc(-c2ccc3ncc4c(c3c2)n(C2CCOCC2)c(=O)n4C)cn1 [AZD0156]; conditions: max 3 µM
Method in brief: as §1

[14] = compound: CN(CC[C@H](CSC1=CC=CC=C1)NC2=C(C=C(C=C2)S(=O)(=O)NC(=O)C3=CC=C(C=C3)N4CCC(CC4)[C@H](C5=CC=CC=C5C6=CC=C(C=C6)Cl)O)S(=O)(=O)C(F)(F)F)CCO [AZD4320]; conditions: max 1 µM
Method in brief: as §1

[15] = compound: COc1cc(Nc2ncc3c(n2)-c2ccc(Cl)cc2C(c2c(F)cccc2OC)=NC3)ccc1C(=O)O [Alisertib]; conditions: max 10 µM
Method in brief: as §1

[16] = compound: COc1cc([C@@H]2c3cc4c(cc3[C@@H](O[C@@H]3O[C@@H]5CO[C@@H](C)O[C@H]5[C@H](O)[C@H]3O)[C@H]3COC(=O)[C@H]23)OCO4)cc(OC)c1O [Etoposide]; conditions: max 10 µM
Method in brief: as §1

[17] = compound: COc1cc2ncnc(Nc3ccc(F)c(Cl)c3)c2cc1OCCCN1CCOCC1 [Gefitinib]; conditions: max 10 µM
Method in brief: as §1

[18] = compound: COc1cccc(OCCCN)c1-c1cc(Nc2cnc(C#N)cn2)n[nH]1 [Prexasertib]; conditions: max 1 µM
Method in brief: as §1

[19] = compound: COc1cccc2c1C(=O)c1c(O)c3c(c(O)c1C2=O)C[C@@](O)(C(=O)CO)C[C@@H]3O[C@H]1C[C@H](N)[C@H](O)[C@H](C)O1 [Doxorubicin]; conditions: max 1 µM
Method in brief: as §1

[20] = compound: COc1nnc2ccc(N3CCC(c4ccc(OCCN5CCN(C)C(=O)[C@H]5C)cc4)CC3)nn12 [AZD5153]; conditions: max 1 µM
Method in brief: as §1

[21] = compound: CS(=O)(=O)CCNCc1ccc(-c2ccc3ncnc(Nc4ccc(OCc5cccc(F)c5)c(Cl)c4)c3c2)o1 [Lapatinib]; conditions: max 10 µM
Method in brief: as §1

[22] = compound: C[C@@H](Nc1cc(F)cc(F)c1)c1cc(C(=O)N(C)C)cc2c(=O)cc(N3CCOCC3)oc12 [AZD8186]; conditions: max 10 µM
Method in brief: as §1

[23] = compound: C[C@@H](Oc1cc(-c2cnn(C3CCNCC3)c2)cnc1N)c1c(Cl)ccc(F)c1Cl [Crizotinib]; conditions: max 10 µM
Method in brief: as §1

[24] = compound: C[C@@H](c1ccc2nccn2c1)n1nnc2ncc(-c3cnn(C)c3)nc21 [Savolitinib]; conditions: max 1 µM
Method in brief: as §1

[25] = compound: C[C@@H]1COCCN1C2=NC(=NC(=C2)C3(CC3)[S@](=N)(=O)C)C4=C5C=CNC5=NC=C4 [AZD6738]; conditions: max 10 µM
Method in brief: as §1

[26] = compound: Cc1c2c(nn1C)CSCc1cc(n(C)n1)CSc1cc(c3ccccc3c1)OCCCc1c(C(=O)O)n(C)c3c-2c(Cl)ccc13 [AZD5991]; conditions: max 1 µM
Method in brief: as §1

[27] = compound: Cc1cc2ncnn2cc1Nc1ncc2c(n1)n(C1CCOCC1)c(=O)n2C [AZD7648]; conditions: max 10 µM
Method in brief: as §1

[28] = compound: Cc1nc(-c2cn3c(n2)-c2ccc(-c4cnn(C(C)(C)C(N)=O)c4)cc2OCC3)n(C(C)C)n1 [Taselisib]; conditions: max 10 µM
Method in brief: as §1

[29] = compound: Cn1cnc2c(F)c(Nc3ccc(Br)cc3Cl)c(C(=O)NOCCO)cc21 [Selumetinib]; conditions: max 10 µM
Method in brief: as §1

[30] = compound: N#Cc1cnc(Nc2cc(NC[C@H]3CNCCO3)c(C(F)(F)F)cn2)cn1 [SRA737]; conditions: max 10 µM
Method in brief: as §1

[31] = compound: NC1(c2ccc(-c3nc4ccn5c(=O)[nH]nc5c4cc3-c3ccccc3)cc2)CCC1 [MK-2206]; conditions: max 10 µM
Method in brief: as §1

[32] = compound: Nc1ccn([C@@H]2O[C@H](CO)[C@@H](O)C2(F)F)c(=O)n1 [Gemcitabine]; conditions: max 0.3 µM
Method in brief: as §1

[33] = compound: O=C(Nc1ccc2[nH]nc(-c3ccncc3)c2c1)[C@@H]1CCN(CC(=O)N2CCN(c3ccc(-c4ncccn4)cc3)CC2)C1; conditions: max 5 µM
Method in brief: as §1

[34] = compound: O=C(c1cc(Cc2n[nH]c(=O)c3ccccc23)ccc1F)N1CCN(C(=O)C2CC2)CC1 [Olaparib]; conditions: max 10 µM
Method in brief: as §1

[35] = compound: O=c1[nH]cc(F)c(=O)[nH]1 [5-Fluorouracil]; conditions: max 20 µM
Method in brief: as §1

| Cell Line | IC50, cell viability 72 h [1] | IC50, cell viability 72 h [2] | IC50, cell viability 72 h [3] | IC50, cell viability 72 h [4] | IC50, cell viability 72 h [5] | IC50, cell viability 72 h [6] | IC50, cell viability 72 h [7] | IC50, cell viability 72 h [8] | IC50, cell viability 72 h [9] | IC50, cell viability 72 h [10] | IC50, cell viability 72 h [11] | IC50, cell viability 72 h [12] | IC50, cell viability 72 h [13] | IC50, cell viability 72 h [14] | IC50, cell viability 72 h [15] | IC50, cell viability 72 h [16] | IC50, cell viability 72 h [17] | IC50, cell viability 72 h [18] | IC50, cell viability 72 h [19] | IC50, cell viability 72 h [20] | IC50, cell viability 72 h [21] | IC50, cell viability 72 h [22] | IC50, cell viability 72 h [23] | IC50, cell viability 72 h [24] | IC50, cell viability 72 h [25] | IC50, cell viability 72 h [26] | IC50, cell viability 72 h [27] | IC50, cell viability 72 h [28] | IC50, cell viability 72 h [29] | IC50, cell viability 72 h [30] | IC50, cell viability 72 h [31] | IC50, cell viability 72 h [32] | IC50, cell viability 72 h [33] | IC50, cell viability 72 h [34] | IC50, cell viability 72 h [35] |
| --- | --- | --- | --- | --- | --- | --- | --- | --- | --- | --- | --- | --- | --- | --- | --- | --- | --- | --- | --- | --- | --- | --- | --- | --- | --- | --- | --- | --- | --- | --- | --- | --- | --- | --- | --- |
| MLMA (Other Blood Carcinomas) | > 10 µM | 8.83 µM | 0.144 µM | > 1 µM | 0.0137 µM | > 10 µM | > 0.3 µM | 0.272 µM | 0.548 µM | > 0.001 µM | > 1 µM | 0.0163 µM | > 3 µM | > 1 µM | 6.31 µM | 2.2 µM | > 10 µM | 0.00219 µM | 0.116 µM | 0.0555 µM | > 10 µM | 2.94 µM | 9.93 µM | > 1 µM | 4.31 µM | > 1 µM | > 10 µM | 0.982 µM | > 10 µM | 0.934 µM | 1.76 µM | 0.0228 µM | > 5 µM | > 10 µM | > 20 µM |
| EW-24 (Ewing's Sarcoma) | > 10 µM | > 10 µM | > 3 µM | > 1 µM | 0.255 µM | > 10 µM | > 0.3 µM | > 1 µM | > 2 µM | > 0.001 µM | > 1 µM | 0.0129 µM | > 3 µM | 0.204 µM | > 10 µM | 5.33 µM | > 10 µM | 0.12 µM | > 1 µM | > 1 µM | > 10 µM | > 10 µM | > 10 µM | > 1 µM | > 10 µM | > 1 µM | > 10 µM | 2.45 µM | > 10 µM | 8.42 µM | > 10 µM | 0.031 µM | > 5 µM | > 10 µM | > 20 µM |
| Ca9-22 (Head and Neck Carcinoma) | > 10 µM | > 10 µM | 0.714 µM | 0.657 µM | 0.00745 µM | > 10 µM | > 0.3 µM | > 1 µM | 0.229 µM | > 0.001 µM | > 1 µM | 0.0105 µM | > 3 µM | > 1 µM | 7.14 µM | > 10 µM | 3.84 µM | 0.0313 µM | 0.931 µM | 0.35 µM | 2.14 µM | > 10 µM | 9.4 µM | > 1 µM | 2.37 µM | > 1 µM | > 10 µM | 1.37 µM | > 10 µM | > 10 µM | > 10 µM | 0.0732 µM | 4.67 µM | > 10 µM | > 20 µM |
| SW13 (Other Solid Carcinomas) | > 10 µM | > 10 µM | > 3 µM | 0.804 µM | 0.00609 µM | > 10 µM | > 0.3 µM | > 1 µM | 1.25 µM | > 0.001 µM | > 1 µM | 0.00519 µM | > 3 µM | > 1 µM | > 10 µM | 4.89 µM | > 10 µM | > 1 µM | 0.394 µM | > 1 µM | 4.46 µM | > 10 µM | > 10 µM | > 1 µM | > 10 µM | 0.212 µM | > 10 µM | > 10 µM | > 10 µM | > 10 µM | > 10 µM | 0.0271 µM | > 5 µM | > 10 µM | > 20 µM |
| EoL-1-cell (Acute Myeloid Leukemia) | > 10 µM | 3.19 µM | 0.158 µM | 0.0155 µM | 0.00412 µM | 4.64 µM | > 0.3 µM | 0.0618 µM | 0.00561 µM | > 0.001 µM | 0.00992 µM | 0.00599 µM | > 3 µM | 0.00851 µM | 0.0428 µM | 0.157 µM | > 10 µM | 0.00487 µM | 0.0691 µM | 0.0413 µM | > 10 µM | > 10 µM | 2.29 µM | > 1 µM | 0.765 µM | 0.0606 µM | > 10 µM | 6.19 µM | 1.55 µM |  | 4.05 µM | 0.0067 µM | 0.506 µM | > 10 µM | 3.96 µM |
